In ChEMBL document CHEMBL2434892, “Flavones as isosteres of 4(1H)-quinolones: discovery of ligand efficient and dual stage antimalarial lead compounds” (Eur J Med Chem, 2013):

Experiments:
Plasmodium falciparum = experiment: Antiplasmodial activity against chloroquine-resistant blood stage of Plasmodium falciparum W2 infected in human RBC after 48 hrs by flow cytometric analysis; type: functional, organism-based; settings: W2, 48 h
Plasmodium berghei [1] = experiment: Antiplasmodial activity against liver sporozoite stage of Plasmodium berghei ANKA expressing GFP infected in human HuH7 cells assessed as inhibition of parasite development after 24 hrs by qRT-PCR analysis; type: functional, organism-based; settings: Huh-7, Liver
Plasmodium berghei [2] = experiment: microbe, parasite or virus in culture; settings: Huh-7, Liver
Description: Antiplasmodial activity against liver sporozoite stage of Plasmodium berghei expressing luciferase and GFP infected in human HuH7 cells assessed as inhibition of parasite development incubated for 1 hr prior to parasite infection measured after 48 hrs by Alamar blue assay

[3] = Cytotoxicity against human HuH7 cells assessed as cell viability after 48 hrs by Alamar blue assay; type: cell-based, Huh-7

**Q.** Which IC50 (Plasmodium falciparum) does the source give for `Cc1cc2oc(-c3ccc(Oc4ccc(Cl)cc4)cc3)cc(=O)c2cc1Cl` here?
**A.** 23.2 µM

**Q.** With `O=c1cc(-c2ccc(-c3cnc4ccccc4c3)cc2)oc2ccccc12` as the molecule, how does the IC50 (Plasmodium falciparum) read?
**A.** 5.17 µM

**Q.** With `O=c1c(-c2ccc(O)cc2)coc2cc(O)cc(O)c12` [GENISTEIN] as the molecule, how does the IC50 (Plasmodium berghei [1]) read?
**A.** 20 µM

**Q.** Which IC50 (Plasmodium falciparum) does the source give for `O=Cc1ccc(-c2ccc(-c3cc(=O)c4ccccc4o3)cc2)cc1` here?
**A.** > 25 µM

**Q.** Which IC50 (Plasmodium berghei [2]) does the source give for `Cc1ccc2c(=O)cc(-c3ccc(Oc4ccc(Cl)cc4)cc3)oc2c1` here?
**A.** 4.1 µM

**Q.** What about the IC50 (Plasmodium falciparum) of the same molecule?
**A.** 19.7 µM

**Q.** And the CC50 at 48 h [3]?
**A.** > 50 µM

**Q.** For `Cc1cc2oc(-c3ccc(OCCCC(F)(F)F)cc3)cc(=O)c2cc1Cl`, which IC50 (Plasmodium falciparum) is on record?
**A.** 17.2 µM

**Q.** For `O=c1cc(-c2ccc(Oc3ccc(Cl)cc3)cc2)oc2ccccc12`, which IC50 (Plasmodium berghei [2]) is on record?
**A.** 6.2 µM

**Q.** And the IC50 (Plasmodium falciparum)?
**A.** 21 µM

**Q.** What about the CC50 at 48 h [3] of the same molecule?
**A.** > 180 µM

**Q.** Which IC50 (Plasmodium falciparum) does the source give for `O=c1cc(-c2ccc(-c3ccc(F)cc3)cc2)oc2ccccc12` here?
**A.** > 25 µM

**Q.** With `Cc1cc2oc(-c3ccc(-c4ccccc4)cc3)c(Br)c(=O)c2cc1Cl` as the molecule, how does the IC50 (Plasmodium falciparum) read?
**A.** > 25 µM

**Q.** For `O=c1cc(-c2ccc(Br)cc2)oc2ccccc12`, which IC50 (Plasmodium falciparum) is on record?
**A.** > 25 µM

**Q.** Which results are given for `Cc1cc2oc(-c3ccc(-c4ccccc4)cc3)cc(=O)c2cc1Cl`?
**A.** IC50 (Plasmodium berghei [2]): 8.5 µM; IC50 (Plasmodium falciparum): 14 µM; CC50 at 48 h [3]: > 90 µM

**Q.** Which IC50 (Plasmodium falciparum) does the source give for `O=c1cc(-c2ccc(Oc3ccc(Cl)cc3)cc2)oc2ccc(Cl)cc12` here?
**A.** > 25 µM

**Q.** For `Nc1ccc(-c2ccc(-c3cc(=O)c4ccccc4o3)cc2)cn1`, which IC50 (Plasmodium berghei [2]) is on record?
**A.** 1.9 µM

**Q.** What about the IC50 (Plasmodium falciparum) of the same molecule?
**A.** 3.88 µM

**Q.** What about the CC50 at 48 h [3] of the same molecule?
**A.** > 15 µM

**Q.** For `O=c1c(Br)c(-c2ccc(-c3ccccc3)cc2)oc2cc(CBr)c(Cl)cc12`, which IC50 (Plasmodium falciparum) is on record?
**A.** 5.96 µM

**Q.** For `O=c1cc(-c2ccc(Oc3ccc(Cl)cc3)cc2)oc2cc(Cl)ccc12`, which IC50 (Plasmodium falciparum) is on record?
**A.** 12.6 µM

**Q.** For `O=c1cc(-c2ccc(Oc3cccc(OC(F)(F)F)c3)cc2)oc2ccccc12`, which IC50 (Plasmodium falciparum) is on record?
**A.** 14.9 µM

**Q.** For `O=c1cc(-c2ccc(-c3ccccc3)cc2)oc2ccccc12`, which IC50 (Plasmodium falciparum) is on record?
**A.** > 25 µM

**Q.** Which IC50 (Plasmodium falciparum) does the source give for `Cc1cc2oc(-c3ccc(Oc4ccc(OC(F)(F)F)cc4)cc3)cc(=O)c2cc1Cl` here?
**A.** > 25 µM

**Q.** With `O=c1cc(-c2ccc(-c3ccc(Cl)cc3)cc2)oc2ccccc12` as the molecule, how does the IC50 (Plasmodium falciparum) read?
**A.** > 10 µM
